Results as given in PubChem BioAssay (NCI).
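In this assay, cells in 96-well plates receive the compound at five concentrations for 48 hours. Endpoints are linearly interpolated between the surrounding concentrations. TGI is the concentration that stops growth completely.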

Columns and labels:
Experiment in all cases: DTP human tumour cell line panel, 48 h
SF-295 CNS = system: SF-295 CNS
DU-145 prostate = system: DU-145 prostate
M14 melanoma = system: M14 melanoma
CCRF-CEM leukemia = system: CCRF-CEM leukemia
MCF7 breast = system: MCF7 breast
OVCAR-4 ovarian = system: OVCAR-4 ovarian
IGROV1 ovarian = system: IGROV1 ovarian
MDA-MB-435 = system: MDA-MB-435
HCT-116 colon = system: HCT-116 colon
HOP-92 NSCLC = system: HOP-92 NSCLC
786-0 renal = system: 786-0 renal
NCI-H460 lung = system: NCI-H460 lung
HOP-62 NSCLC = system: HOP-62 NSCLC
SNB-19 CNS = system: SNB-19 CNS
SNB-75 CNS = system: SNB-75 CNS
SN12C renal = system: SN12C renal
EKVX NSCLC = system: EKVX NSCLC
ACHN renal = system: ACHN renal
A498 renal = system: A498 renal
SK-MEL-5 melanoma = system: SK-MEL-5 melanoma
SF-268 CNS = system: SF-268 CNS
NCI-H226 lung = system: NCI-H226 lung
MOLT-4 leukemia = system: MOLT-4 leukemia
OVCAR-8 ovarian = system: OVCAR-8 ovarian
HT29 colon = system: HT29 colon
PC-3 prostate = system: PC-3 prostate
HL-60(TB) leukemia = system: HL-60(TB) leukemia
MDA-MB-231 breast = system: MDA-MB-231 breast
CAKI-1 renal = system: CAKI-1 renal
SK-MEL-2 melanoma = system: SK-MEL-2 melanoma
UACC-257 melanoma = system: UACC-257 melanoma
HS 578T breast = system: HS 578T breast
OVCAR-5 ovarian = system: OVCAR-5 ovarian
NCI/ADR-RES ovarian = system: NCI/ADR-RES ovarian
OVCAR-3 ovarian = system: OVCAR-3 ovarian
T-47D breast = system: T-47D breast
TK-10 renal = system: TK-10 renal
A549 NSCLC = system: A549 NSCLC
SK-MEL-28 melanoma = system: SK-MEL-28 melanoma
UO-31 renal = system: UO-31 renal
MDA-N = system: MDA-N
NCI-H23 lung = system: NCI-H23 lung
SK-OV-3 ovarian = system: SK-OV-3 ovarian
SW-620 colon = system: SW-620 colon
K-562 leukemia = system: K-562 leukemia
KM12 colon = system: KM12 colon
NCI-H522 lung = system: NCI-H522 lung
SR leukemia = system: SR leukemia
COLO 205 colon = system: COLO 205 colon
RPMI-8226 leukemia = system: RPMI-8226 leukemia
HCT-15 colon = system: HCT-15 colon
UACC-62 melanoma = system: UACC-62 melanoma
MALME-3M melanoma = system: MALME-3M melanoma
U251 CNS = system: U251 CNS
HCC-2998 colon = system: HCC-2998 colon
SF-539 CNS = system: SF-539 CNS
RXF 393 renal = system: RXF 393 renal
BT-549 breast = system: BT-549 breast
LOX IMVI melanoma = system: LOX IMVI melanoma

## COC(=O)N[C@@H]1C[C@H]2CC[C@]1(O[Si](C(C)C)(C(C)C)C(C)C)C(=O)C2
SF-295 CNS
  TGI: 39.7 µM
DU-145 prostate
  TGI: > 100 µM
M14 melanoma
  TGI: 62.8 µM
CCRF-CEM leukemia
  TGI: > 100 µM
MCF7 breast
  TGI: > 100 µM
OVCAR-4 ovarian
  TGI: 33.8 µM
IGROV1 ovarian
  TGI: 32 µM
MDA-MB-435
  TGI: 41.6 µM
HCT-116 colon
  TGI: > 100 µM
HOP-92 NSCLC
  TGI: 70.6 µM
786-0 renal
  TGI: 69 µM
NCI-H460 lung
  TGI: > 100 µM
HOP-62 NSCLC
  TGI: 46.4 µM
SNB-19 CNS
  TGI: 39.5 µM
SNB-75 CNS
  TGI: 41.9 µM
SN12C renal
  TGI: > 100 µM
EKVX NSCLC
  TGI: 31.8 µM
ACHN renal
  TGI: 45.7 µM
A498 renal
  TGI: 44.3 µM
SK-MEL-5 melanoma
  TGI: > 100 µM
SF-268 CNS
  TGI: 28.6 µM
NCI-H226 lung
  TGI: 33 µM
MOLT-4 leukemia
  TGI: > 100 µM
OVCAR-8 ovarian
  TGI: 63.4 µM
HT29 colon
  TGI: 47.8 µM
PC-3 prostate
  TGI: 33.9 µM
HL-60(TB) leukemia
  TGI: 78.7 µM
MDA-MB-231 breast
  TGI: 76.5 µM
CAKI-1 renal
  TGI: > 100 µM
SK-MEL-2 melanoma
  TGI: 35.3 µM
UACC-257 melanoma
  TGI: 38.4 µM
HS 578T breast
  TGI: 31.5 µM
OVCAR-5 ovarian
  TGI: 45.3 µM
NCI/ADR-RES ovarian
  TGI: 35.4 µM
OVCAR-3 ovarian
  TGI: 39.7 µM
T-47D breast
  TGI: > 100 µM
TK-10 renal
  TGI: 30.6 µM
A549 NSCLC
  TGI: 55.7 µM
SK-MEL-28 melanoma
  TGI: 36.8 µM
UO-31 renal
  TGI: 32 µM
MDA-N
  TGI: 83.4 µM
NCI-H23 lung
  TGI: 39.3 µM
SK-OV-3 ovarian
  TGI: 46.5 µM
SW-620 colon
  TGI: > 100 µM
K-562 leukemia
  TGI: > 100 µM
KM12 colon
  TGI: 52.1 µM
NCI-H522 lung
  TGI: 24 µM
SR leukemia
  TGI: > 100 µM
COLO 205 colon
  TGI: > 100 µM
RPMI-8226 leukemia
  TGI: 69.8 µM
HCT-15 colon
  TGI: 41.4 µM
UACC-62 melanoma
  TGI: 44.7 µM

## O=c1c(O)c(-c2ccccc2)oc2c(CP(=O)(O)O)cccc12
SF-295 CNS
  TGI: > 100 µM
DU-145 prostate
  TGI: > 100 µM
M14 melanoma
  TGI: > 100 µM
CCRF-CEM leukemia
  TGI: > 100 µM
MCF7 breast
  TGI: > 100 µM
OVCAR-4 ovarian
  TGI: > 100 µM
IGROV1 ovarian
  TGI: > 100 µM
MDA-MB-435
  TGI: > 100 µM
HCT-116 colon
  TGI: > 100 µM
786-0 renal
  TGI: > 100 µM
NCI-H460 lung
  TGI: > 100 µM
HOP-62 NSCLC
  TGI: > 100 µM
SN12C renal
  TGI: > 100 µM
EKVX NSCLC
  TGI: > 100 µM
A498 renal
  TGI: > 100 µM
SK-MEL-5 melanoma
  TGI: > 100 µM
MALME-3M melanoma
  TGI: > 100 µM
MOLT-4 leukemia
  TGI: > 100 µM
U251 CNS
  TGI: > 100 µM
HCC-2998 colon
  TGI: > 100 µM
PC-3 prostate
  TGI: > 100 µM
MDA-MB-231 breast
  TGI: > 100 µM
CAKI-1 renal
  TGI: > 100 µM
SK-MEL-2 melanoma
  TGI: > 100 µM
UACC-257 melanoma
  TGI: > 100 µM
OVCAR-5 ovarian
  TGI: > 100 µM
OVCAR-3 ovarian
  TGI: > 100 µM
T-47D breast
  TGI: > 100 µM
SF-539 CNS
  TGI: > 100 µM
TK-10 renal
  TGI: > 100 µM
A549 NSCLC
  TGI: > 100 µM
MDA-N
  TGI: > 100 µM
NCI-H23 lung
  TGI: > 100 µM
SK-OV-3 ovarian
  TGI: > 100 µM
K-562 leukemia
  TGI: > 100 µM
NCI-H522 lung
  TGI: > 100 µM
RXF 393 renal
  TGI: > 100 µM
SR leukemia
  TGI: > 100 µM
COLO 205 colon
  TGI: > 100 µM
HCT-15 colon
  TGI: > 100 µM
BT-549 breast
  TGI: > 100 µM
UACC-62 melanoma
  TGI: > 100 µM

## CCCN=C1NC(C)=CSC(Nc2ccccc2)=C1C#N
SF-295 CNS
  TGI: > 100 µM
DU-145 prostate
  TGI: > 100 µM
M14 melanoma
  TGI: > 100 µM
MCF7 breast
  TGI: > 100 µM
OVCAR-4 ovarian
  TGI: > 100 µM
MDA-MB-435
  TGI: > 100 µM
HCT-116 colon
  TGI: > 100 µM
786-0 renal
  TGI: > 100 µM
HOP-62 NSCLC
  TGI: > 100 µM
SNB-19 CNS
  TGI: > 100 µM
SN12C renal
  TGI: > 100 µM
ACHN renal
  TGI: > 100 µM
A498 renal
  TGI: > 100 µM
SK-MEL-5 melanoma
  TGI: > 100 µM
SF-268 CNS
  TGI: > 100 µM
MALME-3M melanoma
  TGI: > 100 µM
MOLT-4 leukemia
  TGI: > 100 µM
OVCAR-8 ovarian
  TGI: > 100 µM
U251 CNS
  TGI: > 100 µM
PC-3 prostate
  TGI: > 100 µM
MDA-MB-231 breast
  TGI: > 100 µM
CAKI-1 renal
  TGI: > 100 µM
SK-MEL-2 melanoma
  TGI: > 100 µM
OVCAR-5 ovarian
  TGI: > 100 µM
NCI/ADR-RES ovarian
  TGI: > 100 µM
OVCAR-3 ovarian
  TGI: > 100 µM
T-47D breast
  TGI: > 100 µM
SF-539 CNS
  TGI: > 100 µM
TK-10 renal
  TGI: > 100 µM
A549 NSCLC
  TGI: > 100 µM
SK-MEL-28 melanoma
  TGI: > 100 µM
UO-31 renal
  TGI: > 100 µM
MDA-N
  TGI: > 100 µM
NCI-H23 lung
  TGI: > 100 µM
SK-OV-3 ovarian
  TGI: > 100 µM
SW-620 colon
  TGI: > 100 µM
K-562 leukemia
  TGI: > 100 µM
KM12 colon
  TGI: > 100 µM
NCI-H522 lung
  TGI: > 100 µM
RXF 393 renal
  TGI: > 100 µM
SR leukemia
  TGI: > 100 µM
COLO 205 colon
  TGI: > 100 µM
RPMI-8226 leukemia
  TGI: > 100 µM
HCT-15 colon
  TGI: > 100 µM
UACC-62 melanoma
  TGI: > 100 µM

## CCSC12OC3(CCCCCN3C1=O)C1C(=O)N(c3ccccc3)C(=O)C12 (centres undefined)
SF-295 CNS
  TGI: > 100 µM
DU-145 prostate
  TGI: > 100 µM
M14 melanoma
  TGI: > 100 µM
CCRF-CEM leukemia
  TGI: > 100 µM
OVCAR-4 ovarian
  TGI: > 100 µM
IGROV1 ovarian
  TGI: > 100 µM
MDA-MB-435
  TGI: > 100 µM
HCT-116 colon
  TGI: > 100 µM
HOP-92 NSCLC
  TGI: > 100 µM
786-0 renal
  TGI: > 100 µM
NCI-H460 lung
  TGI: > 100 µM
SNB-19 CNS
  TGI: > 100 µM
SNB-75 CNS
  TGI: > 100 µM
SN12C renal
  TGI: > 100 µM
EKVX NSCLC
  TGI: > 100 µM
ACHN renal
  TGI: > 100 µM
A498 renal
  TGI: > 100 µM
SK-MEL-5 melanoma
  TGI: > 100 µM
SF-268 CNS
  TGI: > 100 µM
MALME-3M melanoma
  TGI: > 100 µM
NCI-H226 lung
  TGI: > 100 µM
MOLT-4 leukemia
  TGI: > 100 µM
OVCAR-8 ovarian
  TGI: > 100 µM
HT29 colon
  TGI: > 100 µM
U251 CNS
  TGI: > 100 µM
PC-3 prostate
  TGI: > 100 µM
HL-60(TB) leukemia
  TGI: > 100 µM
MDA-MB-231 breast
  TGI: > 100 µM
CAKI-1 renal
  TGI: > 100 µM
SK-MEL-2 melanoma
  TGI: > 100 µM
UACC-257 melanoma
  TGI: > 100 µM
HS 578T breast
  TGI: > 100 µM
OVCAR-5 ovarian
  TGI: > 100 µM
NCI/ADR-RES ovarian
  TGI: > 100 µM
OVCAR-3 ovarian
  TGI: > 100 µM
T-47D breast
  TGI: > 100 µM
SF-539 CNS
  TGI: > 100 µM
TK-10 renal
  TGI: > 100 µM
A549 NSCLC
  TGI: > 100 µM
SK-MEL-28 melanoma
  TGI: > 100 µM
UO-31 renal
  TGI: > 100 µM
MDA-N
  TGI: > 100 µM
NCI-H23 lung
  TGI: > 100 µM
SK-OV-3 ovarian
  TGI: > 100 µM
SW-620 colon
  TGI: > 100 µM
K-562 leukemia
  TGI: > 100 µM
LOX IMVI melanoma
  TGI: > 100 µM
KM12 colon
  TGI: > 100 µM
NCI-H522 lung
  TGI: > 100 µM
RXF 393 renal
  TGI: > 100 µM
SR leukemia
  TGI: > 100 µM
COLO 205 colon
  TGI: > 100 µM
HCT-15 colon
  TGI: > 100 µM
BT-549 breast
  TGI: > 100 µM
UACC-62 melanoma
  TGI: > 100 µM
